Here are results for one compound from article PMC5218480 (PLoS ONE, 2017).

This experiment has as its system MV-4-11 cells. The experiment in a line: Gene expression microarray analysis (Affymetrix PrimeView) and GSEA. The class given is cell-based, human. Set-up: RFU PODN (11730768_x_at) / Fold change /veh PODN (11730768_x_at) / RFU LINC00158 (11744669_a_at) / Fold change /veh LINC00158 (11744669_a_at) / RFU DUSP10 (11751237_a_at) / Fold change /veh DUSP10 (11751237_a_at) / RFU ID3 (11757404_x_at) / Fold change /veh ID3 (11757404_x_at) / RFU PLEKHG5 (11737974_s_at) / Fold change /veh PLEKHG5 (11737974_s_at) / RFU LRRC4B (11730491_at) / Fold change /veh LRRC4B (11730491_at) / RFU GIMAP4 (11747438_a_at) / Fold change /veh GIMAP4 (11747438_a_at) / RFU KRT8 (11758183_x_at) / Fold change /veh KRT8 (11758183_x_at) / RFU CNN1 (11734310_a_at) / Fold change /veh CNN1 (11734310_a_at) / RFU VPS37D (11726825_at) / Fold change /veh VPS37D (11726825_at) / RFU C10orf10 (11716522_x_at) / Fold change /veh C10orf10 (11716522_x_at) / RFU KIR2DL2 /// KIR2DL4 /// KIR2DL5A /// KIR2DL5B /// KIR2DS1 /// KIR2DS2 /// KIR2DS3 /// KIR2DS4 /// KIR3DL3 /// KIR3DL3 /// KIR3DS1 (11738374_at) / Fold change /veh KIR2DL2 /// KIR2DL4 /// KIR2DL5A /// KIR2DL5B /// KIR2DS1 /// KIR2DS2 /// KIR2DS3 /// KIR2DS4 /// KIR3DL3 /// KIR3DL3 /// KIR3DS1 (11738374_at) / RFU C1QL1 (11718748_at) / Fold change /veh C1QL1 (11718748_at) / RFU TMPRSS4 (11747572_a_at) / Fold change /veh TMPRSS4 (11747572_a_at) / RFU HAMP (11756126_x_at) / Fold change /veh HAMP (11756126_x_at) / RFU RNFT2 (11725882_a_at) / Fold change /veh RNFT2 (11725882_a_at) / RFU NR4A2 (11747474_a_at) / Fold change /veh NR4A2 (11747474_a_at) / RFU ABCC12 (11746883_a_at) / Fold change /veh ABCC12 (11746883_a_at) / RFU TMEM136 (11760407_x_at) / Fold change /veh TMEM136 (11760407_x_at) / RFU CLDN22 /// WWC2 (11732394_at) / Fold change /veh CLDN22 /// WWC2 (11732394_at) / RFU HLA-DPB1 (11760878_x_at) / Fold change /veh HLA-DPB1 (11760878_x_at) / RFU SPINT1 (11716480_a_at) / Fold change /veh SPINT1 (11716480_a_at) / RFU GAP43 (11754022_s_at) / Fold change /veh GAP43 (11754022_s_at) / RFU A4GNT (11735810_at) / Fold change /veh A4GNT (11735810_at) / RFU PRB3 (11715151_x_at) / Fold change /veh PRB3 (11715151_x_at) / RFU TUBB4B (11761932_at) / Fold change /veh TUBB4B (11761932_at) / RFU CAPN14 (11732068_a_at) / Fold change /veh CAPN14 (11732068_a_at) / RFU TMCC2 (11721928_a_at) / Fold change /veh TMCC2 (11721928_a_at) / RFU IRGQ (11745062_a_at) / Fold change /veh IRGQ (11745062_a_at) / RFU FAM174B (11720279_a_at) / Fold change /veh FAM174B (11720279_a_at) / RFU TMPRSS4 (11748680_a_at) / Fold change /veh TMPRSS4 (11748680_a_at) / RFU FAM212B (11763350_a_at) / Fold change /veh FAM212B (11763350_a_at) / RFU PLEKHG5 (11743358_a_at) / Fold change /veh PLEKHG5 (11743358_a_at) / RFU ZSCAN30 (11745921_a_at) / Fold change /veh ZSCAN30 (11745921_a_at) / RFU CMKLR1 (11741424_a_at) / Fold change /veh CMKLR1 (11741424_a_at) / RFU LOC101060620 /// MAPK8IP1 (11723275_at) / Fold change /veh LOC101060620 /// MAPK8IP1 (11723275_at) / RFU SPTSSB (11747773_x_at) / Fold change /veh SPTSSB (11747773_x_at) / RFU PRSS12 (11739890_at) / Fold change /veh PRSS12 (11739890_at) / RFU BIN1 (11741810_x_at) / Fold change /veh BIN1 (11741810_x_at) / RFU WNT11 (11732464_a_at) / Fold change /veh WNT11 (11732464_a_at) / RFU C10orf10 (11716521_a_at) / Fold change /veh C10orf10 (11716521_a_at) / RFU C5orf56 (11738089_at) / Fold change /veh C5orf56 (11738089_at) / RFU CYB561 (11721691_x_at) / Fold change /veh CYB561 (11721691_x_at) / RFU ANKRD19P (11752326_a_at) / Fold change /veh ANKRD19P (11752326_a_at) / RFU OR2T12 /// OR2T33 /// OR2T8 (11738714_s_at) / Fold change /veh OR2T12 /// OR2T33 /// OR2T8 (11738714_s_at) / RFU VCAN (11748164_a_at) / Fold change /veh VCAN (11748164_a_at) / RFU JSRP1 (11732532_at) / Fold change /veh JSRP1 (11732532_at) / RFU KRTAP10-11 (11738290_x_at) / Fold change /veh KRTAP10-11 (11738290_x_at) / RFU MYO3A (11730013_a_at) / Fold change /veh MYO3A (11730013_a_at) / RFU EBF3 (11725865_a_at) / Fold change /veh EBF3 (11725865_a_at) / RFU CAMK2N1 (11719241_x_at) / Fold change /veh CAMK2N1 (11719241_x_at) / RFU C5orf56 (11738088_a_at) / Fold change /veh C5orf56 (11738088_a_at) / RFU OLFML3 (11715873_a_at) / Fold change /veh OLFML3 (11715873_a_at) / RFU LOC100653217 /// NTM (11731650_a_at) / Fold change /veh LOC100653217 /// NTM (11731650_a_at) / RFU MAPK11 (11762145_a_at) / Fold change /veh MAPK11 (11762145_a_at) / RFU FIZ1 (11724087_x_at) / Fold change /veh FIZ1 (11724087_x_at) / RFU OASL (11726364_x_at) / Fold change /veh OASL (11726364_x_at) / RFU SOX15 (11748057_x_at) / Fold change /veh SOX15 (11748057_x_at) / RFU CD79A (11719716_a_at) / Fold change /veh CD79A (11719716_a_at) / RFU HIST1H1D (11736915_at) / Fold change /veh HIST1H1D (11736915_at) / RFU CASKIN2 (11723855_a_at) / Fold change /veh CASKIN2 (11723855_a_at) / RFU LOC730098 (11760151_x_at) / Fold change /veh LOC730098 (11760151_x_at) / RFU OR4N2 (11742367_at) / Fold change /veh OR4N2 (11742367_at) / RFU PRRT2 (11749266_a_at) / Fold change /veh PRRT2 (11749266_a_at) / RFU SNX32 (11753110_a_at) / Fold change /veh SNX32 (11753110_a_at) / RFU CDHR5 (11726645_a_at) / Fold change /veh CDHR5 (11726645_a_at) / RFU RCAN1 (11760418_a_at) / Fold change /veh RCAN1 (11760418_a_at) / RFU FAM167A (11723789_a_at) / Fold change /veh FAM167A (11723789_a_at) / RFU FAM26E (11764081_at) / Fold change /veh FAM26E (11764081_at) / RFU ISYNA1 (11749810_s_at) / Fold change /veh ISYNA1 (11749810_s_at) / RFU ACY1 (11761880_at) / Fold change /veh ACY1 (11761880_at) / RFU 11764098_at / Fold change /veh 11764098_at / RFU SAMD14 (11745864_x_at) / Fold change /veh SAMD14 (11745864_x_at) / RFU NPB (11741838_a_at) / Fold change /veh NPB (11741838_a_at) / RFU TMPRSS6 (11731388_a_at) / Fold change /veh TMPRSS6 (11731388_a_at) / RFU KRTAP10-2 (11738614_at) / Fold change /veh KRTAP10-2 (11738614_at) / RFU ARHGAP8 /// PRR5-ARHGAP8 (11727945_x_at) / Fold change /veh ARHGAP8 /// PRR5-ARHGAP8 (11727945_x_at) / RFU KRTAP5-7 /// NADSYN1 (11734609_at) / Fold change /veh KRTAP5-7 /// NADSYN1 (11734609_at) / RFU RASL12 (11751679_a_at) / Fold change /veh RASL12 (11751679_a_at) / RFU CDKN2B (11736163_a_at) / Fold change /veh CDKN2B (11736163_a_at) / RFU PRF1 (11729649_at) / Fold change /veh PRF1 (11729649_at) / RFU, ZNF638 /// ZNF638-IT1 / Fold change vs veh, ZNF638 /// ZNF638-IT1 / RFU, PANK3 / Fold change vs veh, PANK3 / RFU, SH3YL1 / Fold change vs veh, SH3YL1 / RFU, ZEB2 / Fold change vs veh, ZEB2 / RFU, NRIP1 / Fold change vs veh, NRIP1 / RFU, PTTG1IP / Fold change vs veh, PTTG1IP / RFU, CAPN2 / Fold change vs veh, CAPN2 / RFU, MED14 / Fold change vs veh, MED14 / RFU, SNORA58 / Fold change vs veh, SNORA58 / RFU, C1orf63 / Fold change vs veh, C1orf63 / RFU, LRRFIP1 / Fold change vs veh, LRRFIP1 / RFU, NDUFAF7 / Fold change vs veh, NDUFAF7 / RFU, SLC12A2 / Fold change vs veh, SLC12A2 / RFU, IBTK / Fold change vs veh, IBTK / RFU, ESF1 / Fold change vs veh, ESF1 / Fold change vs veh, TMEM50B / RFU, TAOK1 / Fold change vs veh, TAOK1 / RFU, ACBD3 / Fold change vs veh, ACBD3 / RFU, TMA16 / Fold change vs veh, TMA16 / RFU, RWDD3 / Fold change vs veh, RWDD3 / RFU, BCAT1 / Fold change vs veh, BCAT1 / RFU, EDEM3 / Fold change vs veh, EDEM3 / RFU, TMEM33 / Fold change vs veh, TMEM33 / RFU, WDR75 / Fold change vs veh, WDR75 / RFU, AHCTF1 / Fold change vs veh, AHCTF1 / RFU, TFRC / Fold change vs veh, TFRC / RFU, ZDHHC17 / Fold change vs veh, ZDHHC17 / RFU, NOM1 / Fold change vs veh, NOM1 / RFU, ARL8B / Fold change vs veh, ARL8B / RFU, ZBTB11 / Fold change vs veh, ZBTB11 / RFU, TAMM41 / Fold change vs veh, TAMM41 / RFU, KIAA1704 /// LOC100996395 / Fold change vs veh, KIAA1704 /// LOC100996395 / RFU, ING1 / Fold change vs veh, ING1 / RFU, TRMT61B / Fold change vs veh, TRMT61B / RFU, FUBP3 / Fold change vs veh, FUBP3 / RFU, TP53 / Fold change vs veh, TP53 / RFU, TNKS2 / Fold change vs veh, TNKS2 / RFU, ZFP14 / Fold change vs veh, ZFP14 / RFU, ACTR2 / Fold change vs veh, ACTR2 / RFU, PPP3R1 / Fold change vs veh, PPP3R1 / RFU, PIK3R1 / Fold change vs veh, PIK3R1 / RFU, HNRNPA1 / Fold change vs veh, HNRNPA1 / RFU, RNF170 / Fold change vs veh, RNF170 / RFU, ZNF28 / Fold change vs veh, ZNF28 / RFU, RNGTT / Fold change vs veh, RNGTT / RFU, OGT / Fold change vs veh, OGT / RFU, BRD1 / Fold change vs veh, BRD1 / RFU, MARS / Fold change vs veh, MARS / RFU, ZNF655 / Fold change vs veh, ZNF655 / RFU, FAHD1 / Fold change vs veh, FAHD1 / RFU, BDP1 / Fold change vs veh, BDP1 / RFU, LRRCC1 / Fold change vs veh, LRRCC1 / RFU, ARID1A / Fold change vs veh, ARID1A / RFU, ZNF146 / Fold change vs veh, ZNF146 / RFU, ZNF330 / Fold change vs veh, ZNF330 / RFU, GPN3 / Fold change vs veh, GPN3 / RFU, C9orf123 / Fold change vs veh, C9orf123 / RFU, N4BP2L2 / Fold change vs veh, N4BP2L2 / RFU, ARFIP1 / Fold change vs veh, ARFIP1 / RFU, FAM179B / Fold change vs veh, FAM179B / RFU, BCL10 / Fold change vs veh, BCL10 / RFU, UHRF1BP1L / Fold change vs veh, UHRF1BP1L / RFU, BET1 / Fold change vs veh, BET1 / RFU, CNOT2 / Fold change vs veh, CNOT2 / RFU, ZNF268 / Fold change vs veh, ZNF268 / Fold change vs veh, ZNF507 / RFU, DGCR2 / Fold change vs veh, DGCR2 / RFU, WDSUB1 / Fold change vs veh, WDSUB1 / Fold change vs veh, HSP90B1 /// MIR3652 / RFU, ADSS / Fold change vs veh, ADSS / RFU, GK / Fold change vs veh, GK / RFU, ZNF148 / Fold change vs veh, ZNF148 / RFU, TAF9 / Fold change vs veh, TAF9 / RFU, SLC1A5 / Fold change vs veh, SLC1A5 / RFU, SLMO2 / Fold change vs veh, SLMO2 / RFU, ABCC4 / Fold change vs veh, ABCC4 / RFU, LOC101060439 /// RAP1B / Fold change vs veh, LOC101060439 /// RAP1B / RFU, RFX7 / Fold change vs veh, RFX7 / RFU, GTPBP10 / Fold change vs veh, GTPBP10 / RFU, CNEP1R1 / Fold change vs veh, CNEP1R1 / RFU, BIVM-ERCC5 /// ERCC5 / Fold change vs veh, BIVM-ERCC5 /// ERCC5 / RFU, ILF3 / Fold change vs veh, ILF3 / RFU 11762660_at / Fold change /veh 11762660_at / RFU VCAN (11757783_s_at) / Fold change /veh VCAN (11757783_s_at) / RFU DDX43 (11728927_at) / Fold change /veh DDX43 (11728927_at) / RFU KRT8 (11758188_x_at) / Fold change /veh KRT8 (11758188_x_at) / RFU NKD1 (11759106_at) / Fold change /veh NKD1 (11759106_at) / RFU SRD5A1 (11742802_a_at) / Fold change /veh SRD5A1 (11742802_a_at) / RFU TPSAB1 /// TPSB2 (11721975_s_at) / Fold change /veh TPSAB1 /// TPSB2 (11721975_s_at) / RFU GSTM3 (11746129_a_at) / Fold change /veh GSTM3 (11746129_a_at) / RFU IL23R (11737362_x_at) / Fold change /veh IL23R (11737362_x_at) / RFU TMEM51 (11727254_a_at) / Fold change /veh TMEM51 (11727254_a_at) / RFU PIWIL2 (11732686_x_at) / Fold change /veh PIWIL2 (11732686_x_at) / RFU ORM1 (11744905_x_at) / Fold change /veh ORM1 (11744905_x_at) / RFU CCDC152 (11743942_at) / Fold change /veh CCDC152 (11743942_at) / RFU ECM1 (11717891_a_at) / Fold change /veh ECM1 (11717891_a_at) / RFU IL23R (11748794_a_at) / Fold change /veh IL23R (11748794_a_at) / RFU TNFAIP8L3 (11732012_x_at) / Fold change /veh TNFAIP8L3 (11732012_x_at) / RFU MBOAT4 (11741988_at) / Fold change /veh MBOAT4 (11741988_at) / RFU 11764193_at / Fold change /veh 11764193_at / RFU TMEM53 (11763286_at) / Fold change /veh TMEM53 (11763286_at) / RFU MAGEB2 (11727129_at) / Fold change /veh MAGEB2 (11727129_at) / RFU TMEM200A (11744735_a_at) / Fold change /veh TMEM200A (11744735_a_at) / RFU CCDC152 (11751479_a_at) / Fold change /veh CCDC152 (11751479_a_at) / RFU FAM211A (11726209_a_at) / Fold change /veh FAM211A (11726209_a_at) / RFU RGS16 (11746705_a_at) / Fold change /veh RGS16 (11746705_a_at) / RFU VCAN (11755009_s_at) / Fold change /veh VCAN (11755009_s_at) / RFU RHOB (11743442_s_at) / Fold change /veh RHOB (11743442_s_at) / RFU RGS16 (11720943_a_at) / Fold change /veh RGS16 (11720943_a_at) / RFU RGS16 (11720944_at) / Fold change /veh RGS16 (11720944_at) / RFU, VPS4B / Fold change vs veh, VPS4B / RFU, CREB1 / Fold change vs veh, CREB1 / RFU, DNAJC13 / Fold change vs veh, DNAJC13 / RFU, GNAQ / Fold change vs veh, GNAQ / RFU, CDK5R1 / Fold change vs veh, CDK5R1 / RFU, ZRANB3 / Fold change vs veh, ZRANB3 / RFU, CUL4A / Fold change vs veh, CUL4A / RFU, CCNY / Fold change vs veh, CCNY / RFU, UFL1 / Fold change vs veh, UFL1 / RFU, COG3 / Fold change vs veh, COG3 / RFU, DIAPH2 / Fold change vs veh, DIAPH2 / RFU, SKA2 / Fold change vs veh, SKA2 / RFU, AFF3 / Fold change vs veh, AFF3 / RFU, LMF1 / Fold change vs veh, LMF1 / RFU, IPO11 / Fold change vs veh, IPO11 / RFU, DFFB / Fold change vs veh, DFFB / RFU, FOXP1 / Fold change vs veh, FOXP1 / RFU, CARD8 / Fold change vs veh, CARD8 / RFU, STRN3 / Fold change vs veh, STRN3 / RFU, ADK / Fold change vs veh, ADK / RFU, RASSF2 / Fold change vs veh, RASSF2 / RFU, WIPF1 / Fold change vs veh, WIPF1 / RFU, LARP1B / Fold change vs veh, LARP1B / RFU, RASA1 / Fold change vs veh, RASA1 / RFU, RB1 / Fold change vs veh, RB1 / RFU, PPFIA1 / Fold change vs veh, PPFIA1 / RFU, MAT2A / Fold change vs veh, MAT2A / RFU, CCT5 / Fold change vs veh, CCT5 / RFU, WDR92 / Fold change vs veh, WDR92 / RFU, CUX1 / Fold change vs veh, CUX1 / RFU, TTC7A / Fold change vs veh, TTC7A / RFU, TMEM135 / Fold change vs veh, TMEM135 / RFU, DEPTOR / Fold change vs veh, DEPTOR / RFU, CPM / Fold change vs veh, CPM / RFU, DNAJB6 / Fold change vs veh, DNAJB6 / RFU, CACNA2D3 / Fold change vs veh, CACNA2D3 / RFU, DTX4 / Fold change vs veh, DTX4 / RFU, TFCP2 / Fold change vs veh, TFCP2 / RFU, GMCL1 /// GMCL1P1 / Fold change vs veh, GMCL1 /// GMCL1P1 / RFU, AEBP2 / Fold change vs veh, AEBP2 / RFU, SNHG1 /// SNORD22 /// SNORD25 /// SNORD26 /// SNORD27 /// SNORD28 /// SNORD29 /// SNORD31 / Fold change vs veh, SNHG1 /// SNORD22 /// SNORD25 /// SNORD26 /// SNORD27 /// SNORD28 /// SNORD29 /// SNORD31 / Fold change (Aza/veh), C12orf56 (ProbeSet 11735607_a_at) / Fold change (ACY-1035/veh), C12orf56 (ProbeSet 11735607_a_at) / Fold change (Aza/veh), FGFR1OP (ProbeSet 11751329_s_at) / Fold change (ACY-1035/veh), FGFR1OP (ProbeSet 11751329_s_at) / Fold change (Aza/veh), VPS36 (ProbeSet 11739960_a_at) / Fold change (ACY-1035/veh), VPS36 (ProbeSet 11739960_a_at) / RFU SYPL1 (11715823_x_at) / Fold change /veh SYPL1 (11715823_x_at) / RFU IGFBP7 (11715501_s_at) / Fold change /veh IGFBP7 (11715501_s_at) / RFU REEP3 (11722064_at) / Fold change /veh REEP3 (11722064_at) / RFU IGLL1 (11728026_x_at) / Fold change /veh IGLL1 (11728026_x_at): dose or concentration left out as unconfirmed. The conditions noted are these: MV-4-11 cells, 48 hours.

As to `Nc1ccc(-c2cccs2)cc1NC(=O)c1ccc2c(c1)cc(C1CC1)n2CCN1CCOCC1` [ACY-1035], the “Fold change /veh SNX32 (11753110_a_at)” value is on record as 1.17.
